Assay results from ChEMBL document CHEMBL1136938, “Structure-activity relationships comparing N-(6-methylpyridin-yl)-substituted aryl amides to 2-methyl-6-(substituted-arylethynyl)pyridines or 2-methyl-4-(substituted-arylethynyl)thiazoles as novel metabotropic glutamate receptor subtype 5 antagonists” (J Med Chem, 2009).

How the values were obtained:
[1] = biological target: Metabotropic glutamate receptor 1 (Homo sapiens) (UniProt Q13255); test: Antagonist activity at cloned mGluR1 expressed in CHO cells co-transfected with chimeric G protein Gqi9 assessed as inhibition of glutamate-induced intracellular inositol phosphate accumulation at 10 uM by phosphoinositide hydrolysis assay; assay type: functional, cell-based
[2] = biological target: Metabotropic glutamate receptor 6 (Homo sapiens) (UniProt O15303); test: Antagonist activity at cloned mGluR6 expressed in CHO cells co-transfected with chimeric G protein Gqi9 assessed as inhibition of glutamate-induced intracellular inositol phosphate accumulation at 10 uM by phosphoinositide hydrolysis assay; assay type: functional, cell-based
Metabotropic glutamate receptor 6 (Homo sapiens), sequence (O15303 whole entry): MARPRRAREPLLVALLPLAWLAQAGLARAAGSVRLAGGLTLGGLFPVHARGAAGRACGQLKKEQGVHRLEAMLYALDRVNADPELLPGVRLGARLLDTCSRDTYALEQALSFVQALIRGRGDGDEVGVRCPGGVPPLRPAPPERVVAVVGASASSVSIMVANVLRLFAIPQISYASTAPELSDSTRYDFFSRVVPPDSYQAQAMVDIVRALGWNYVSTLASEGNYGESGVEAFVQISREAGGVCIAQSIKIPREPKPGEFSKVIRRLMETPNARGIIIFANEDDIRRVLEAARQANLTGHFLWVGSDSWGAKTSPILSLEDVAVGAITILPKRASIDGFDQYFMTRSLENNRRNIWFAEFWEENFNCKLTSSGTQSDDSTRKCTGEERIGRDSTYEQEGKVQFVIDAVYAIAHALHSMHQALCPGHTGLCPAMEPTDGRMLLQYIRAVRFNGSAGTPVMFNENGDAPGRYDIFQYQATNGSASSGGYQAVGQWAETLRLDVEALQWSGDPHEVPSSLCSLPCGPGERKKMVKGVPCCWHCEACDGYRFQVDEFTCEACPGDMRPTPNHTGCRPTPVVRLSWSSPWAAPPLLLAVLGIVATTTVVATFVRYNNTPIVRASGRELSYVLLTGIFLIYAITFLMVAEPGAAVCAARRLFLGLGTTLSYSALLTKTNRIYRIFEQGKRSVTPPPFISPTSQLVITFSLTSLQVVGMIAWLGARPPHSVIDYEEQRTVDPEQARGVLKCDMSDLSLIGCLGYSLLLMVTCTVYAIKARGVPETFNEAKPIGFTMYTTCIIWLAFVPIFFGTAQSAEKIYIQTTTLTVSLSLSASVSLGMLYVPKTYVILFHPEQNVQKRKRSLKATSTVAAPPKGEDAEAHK

[3] = biological target: T1, Metabotropic glutamate receptor 5 (Homo sapiens, UniProt P41594); test: Antagonist activity at cloned mGluR5 expressed in CHO cells co-transfected with chimeric G protein Gqi9 assessed as inhibition of glutamate-induced intracellular inositol phosphate accumulation at 10 uM by phosphoinositide hydrolysis assay; assay type: functional, cell-based
Target sequence in this assay (P41594 21-1212 limits assumed): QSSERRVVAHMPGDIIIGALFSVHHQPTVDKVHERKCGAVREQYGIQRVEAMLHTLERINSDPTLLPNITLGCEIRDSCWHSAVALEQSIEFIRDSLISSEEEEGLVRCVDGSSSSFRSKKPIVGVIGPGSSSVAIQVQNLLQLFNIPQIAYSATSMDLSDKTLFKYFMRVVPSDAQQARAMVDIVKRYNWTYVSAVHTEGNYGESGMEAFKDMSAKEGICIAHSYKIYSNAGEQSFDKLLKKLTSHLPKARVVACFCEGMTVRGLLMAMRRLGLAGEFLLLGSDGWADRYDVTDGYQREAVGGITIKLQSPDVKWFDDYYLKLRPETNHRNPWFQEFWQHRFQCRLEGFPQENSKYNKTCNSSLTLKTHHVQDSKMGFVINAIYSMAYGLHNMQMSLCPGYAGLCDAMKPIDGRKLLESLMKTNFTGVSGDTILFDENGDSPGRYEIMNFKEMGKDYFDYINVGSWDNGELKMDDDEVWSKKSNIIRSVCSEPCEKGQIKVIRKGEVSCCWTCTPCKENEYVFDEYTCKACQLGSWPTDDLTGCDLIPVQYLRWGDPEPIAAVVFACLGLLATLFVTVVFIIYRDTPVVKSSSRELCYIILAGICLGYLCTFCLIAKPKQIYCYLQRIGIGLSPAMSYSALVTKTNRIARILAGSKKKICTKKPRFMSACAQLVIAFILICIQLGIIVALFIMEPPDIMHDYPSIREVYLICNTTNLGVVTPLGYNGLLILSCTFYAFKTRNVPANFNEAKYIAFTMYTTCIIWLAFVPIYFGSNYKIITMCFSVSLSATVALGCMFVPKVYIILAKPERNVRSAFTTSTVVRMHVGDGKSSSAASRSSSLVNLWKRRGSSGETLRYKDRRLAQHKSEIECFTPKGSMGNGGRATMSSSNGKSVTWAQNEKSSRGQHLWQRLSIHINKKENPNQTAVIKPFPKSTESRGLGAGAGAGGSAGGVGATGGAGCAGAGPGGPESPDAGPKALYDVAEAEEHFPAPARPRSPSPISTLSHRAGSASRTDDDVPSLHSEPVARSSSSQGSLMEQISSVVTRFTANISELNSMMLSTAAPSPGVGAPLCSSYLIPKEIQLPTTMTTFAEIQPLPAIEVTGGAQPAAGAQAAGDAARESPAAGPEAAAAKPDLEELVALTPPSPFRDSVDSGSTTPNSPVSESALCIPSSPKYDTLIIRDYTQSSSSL

[4] = biological target: T2, Sodium-dependent dopamine transporter (Homo sapiens, UniProt Q01959); test: Displacement of [125I]RTI55 from human DAT expressed in HEK293 cells; assay type: cell-based
T2 sequence (Q01959 whole entry): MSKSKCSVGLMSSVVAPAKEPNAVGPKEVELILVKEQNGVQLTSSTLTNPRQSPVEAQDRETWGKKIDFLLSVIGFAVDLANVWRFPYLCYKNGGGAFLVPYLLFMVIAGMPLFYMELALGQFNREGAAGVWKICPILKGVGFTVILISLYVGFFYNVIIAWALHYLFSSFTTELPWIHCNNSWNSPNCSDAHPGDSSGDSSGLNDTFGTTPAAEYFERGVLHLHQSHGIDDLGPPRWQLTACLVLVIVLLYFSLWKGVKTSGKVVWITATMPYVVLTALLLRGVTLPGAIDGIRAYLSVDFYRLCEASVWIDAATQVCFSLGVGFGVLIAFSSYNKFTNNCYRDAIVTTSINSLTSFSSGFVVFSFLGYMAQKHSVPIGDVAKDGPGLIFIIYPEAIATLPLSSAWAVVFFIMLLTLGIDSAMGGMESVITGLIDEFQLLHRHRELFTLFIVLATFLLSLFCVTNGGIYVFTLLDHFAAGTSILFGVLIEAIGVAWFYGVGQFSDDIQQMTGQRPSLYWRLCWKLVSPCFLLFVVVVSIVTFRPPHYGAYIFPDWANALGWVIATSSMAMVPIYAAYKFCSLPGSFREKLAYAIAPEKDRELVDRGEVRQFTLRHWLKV

[5] = biological target: T3, Sodium-dependent serotonin transporter (Homo sapiens, UniProt P31645); test: Displacement of [125I]RTI55 from human SERT expressed in HEK293 cells; assay type: cell-based
[6] = biological target: T4, Sodium-dependent noradrenaline transporter (Homo sapiens, UniProt P23975); test: Inhibition of norepinephrine uptake at human NET expressed in HEK293 cells; assay type: cell-based
[7] = biological target: T2, Sodium-dependent dopamine transporter; test: Inhibition of dopamine uptake at human DAT expressed in HEK293 cells; assay type: cell-based
[8] = biological target: T3, Sodium-dependent serotonin transporter; test: Inhibition of serotonin uptake at human SERT expressed in HEK293 cells; assay type: cell-based
[9] = biological target: T4, Sodium-dependent noradrenaline transporter; test: Displacement of [125I]RTI55 from human NET expressed in HEK293 cells; assay type: cell-based
[10] = biological target: T5, Metabotropic glutamate receptor 5 (Rattus norvegicus, UniProt P31424); test: Antagonist activity at rat mGluR5 expressed in HEK293A cells assessed as glutamate-induced calcium flux preincubated for 140 sec before glutamate challenge by calcium fluorescence assay; assay type: functional, cell-based, HEK293-A
T5 sequence (P31424 whole entry): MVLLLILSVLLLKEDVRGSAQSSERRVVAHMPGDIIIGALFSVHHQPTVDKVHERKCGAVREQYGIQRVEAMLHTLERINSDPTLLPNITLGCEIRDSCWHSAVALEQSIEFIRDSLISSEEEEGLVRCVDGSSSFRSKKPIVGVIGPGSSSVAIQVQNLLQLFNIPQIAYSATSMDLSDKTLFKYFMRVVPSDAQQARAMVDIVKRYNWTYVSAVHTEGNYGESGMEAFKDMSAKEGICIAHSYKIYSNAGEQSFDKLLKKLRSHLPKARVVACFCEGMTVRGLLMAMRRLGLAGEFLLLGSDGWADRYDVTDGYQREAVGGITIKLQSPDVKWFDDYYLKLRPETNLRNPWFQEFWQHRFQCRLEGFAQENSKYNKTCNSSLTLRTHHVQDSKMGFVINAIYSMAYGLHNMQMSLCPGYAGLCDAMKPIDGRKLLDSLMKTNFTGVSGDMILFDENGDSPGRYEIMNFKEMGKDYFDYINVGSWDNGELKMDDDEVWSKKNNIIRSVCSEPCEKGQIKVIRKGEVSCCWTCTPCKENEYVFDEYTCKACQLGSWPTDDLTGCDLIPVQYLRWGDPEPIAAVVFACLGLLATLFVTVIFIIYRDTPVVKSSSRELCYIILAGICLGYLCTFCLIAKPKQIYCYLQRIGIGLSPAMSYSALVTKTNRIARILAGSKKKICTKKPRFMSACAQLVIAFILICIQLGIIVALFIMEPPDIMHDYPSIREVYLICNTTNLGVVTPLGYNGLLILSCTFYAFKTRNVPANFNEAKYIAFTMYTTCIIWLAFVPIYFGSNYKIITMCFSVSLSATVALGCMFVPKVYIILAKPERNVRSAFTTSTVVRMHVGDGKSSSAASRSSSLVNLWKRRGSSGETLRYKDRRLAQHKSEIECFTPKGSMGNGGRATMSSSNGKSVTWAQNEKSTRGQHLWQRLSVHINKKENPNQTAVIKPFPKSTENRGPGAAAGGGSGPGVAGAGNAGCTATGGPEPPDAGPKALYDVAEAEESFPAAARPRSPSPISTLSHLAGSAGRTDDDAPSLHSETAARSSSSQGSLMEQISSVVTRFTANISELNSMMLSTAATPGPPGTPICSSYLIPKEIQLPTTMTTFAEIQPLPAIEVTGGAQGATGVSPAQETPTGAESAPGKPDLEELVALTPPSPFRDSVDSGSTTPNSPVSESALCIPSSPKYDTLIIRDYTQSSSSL

[11] = biological target: T1, Metabotropic glutamate receptor 5; test: Displacement of [3H]MPEP from cloned mGluR5 expressed in HEK293T cells by scintillation counting; assay type: cell-based, HEK-293T
Target sequence in this assay (P41594 whole entry): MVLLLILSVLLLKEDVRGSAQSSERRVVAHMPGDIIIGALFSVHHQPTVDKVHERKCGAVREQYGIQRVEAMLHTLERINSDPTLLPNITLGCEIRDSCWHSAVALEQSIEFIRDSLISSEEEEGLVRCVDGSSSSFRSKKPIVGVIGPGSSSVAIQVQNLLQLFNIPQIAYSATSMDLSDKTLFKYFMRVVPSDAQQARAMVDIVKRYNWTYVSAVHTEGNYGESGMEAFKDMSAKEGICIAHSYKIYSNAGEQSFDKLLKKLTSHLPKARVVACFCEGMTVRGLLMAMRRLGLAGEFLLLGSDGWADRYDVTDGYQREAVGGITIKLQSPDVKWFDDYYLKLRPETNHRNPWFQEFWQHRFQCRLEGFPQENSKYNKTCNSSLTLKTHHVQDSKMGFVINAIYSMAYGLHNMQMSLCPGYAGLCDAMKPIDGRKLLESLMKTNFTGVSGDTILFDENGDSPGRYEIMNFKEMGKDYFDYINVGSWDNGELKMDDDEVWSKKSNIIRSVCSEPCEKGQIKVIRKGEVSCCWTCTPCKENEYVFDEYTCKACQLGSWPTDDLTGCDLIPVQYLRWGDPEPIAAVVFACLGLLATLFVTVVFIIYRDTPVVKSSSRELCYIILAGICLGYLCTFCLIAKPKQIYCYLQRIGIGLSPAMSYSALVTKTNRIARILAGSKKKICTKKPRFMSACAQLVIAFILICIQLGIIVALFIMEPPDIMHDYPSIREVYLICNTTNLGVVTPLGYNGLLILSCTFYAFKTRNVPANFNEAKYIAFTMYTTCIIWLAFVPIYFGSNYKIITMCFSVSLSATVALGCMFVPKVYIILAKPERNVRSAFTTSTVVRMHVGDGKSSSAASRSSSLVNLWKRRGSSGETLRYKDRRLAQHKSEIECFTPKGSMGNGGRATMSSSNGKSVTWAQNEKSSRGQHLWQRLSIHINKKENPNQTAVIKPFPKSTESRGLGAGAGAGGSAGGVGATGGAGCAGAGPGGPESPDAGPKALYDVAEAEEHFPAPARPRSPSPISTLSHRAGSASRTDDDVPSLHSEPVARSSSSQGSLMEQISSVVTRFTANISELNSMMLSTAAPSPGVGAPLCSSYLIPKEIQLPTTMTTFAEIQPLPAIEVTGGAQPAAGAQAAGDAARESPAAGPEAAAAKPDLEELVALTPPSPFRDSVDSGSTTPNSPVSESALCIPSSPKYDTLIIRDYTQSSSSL

[12] = biological target: T5, Metabotropic glutamate receptor 5; test: Displacement of [3H]MPEP from rat brain recombinant mGluR5 expressed in HEK293T cells by scintillation counting; assay type: cell-based, HEK-293T

inhibition [1] | inhibition [2] | inhibition [3] | Ki [4] | Ki [5] | Ki [6] | Ki [7] | Ki [8] | Ki [9] | IC50 [10] | Ki [11] | Ki [12] | SMILES
< 70% | < 70% | > 70% | – | – | – | – | – | – | – | – | – | Cc1cccc(C#Cc2ccccc2)n1
< 70% | < 70% | > 70% | > 6000 nM | > 6000 nM | > 6000 nM | > 6000 nM | > 6000 nM | > 6000 nM | – | – | – | Cc1cccc(NC(=O)c2ccc(-c3cccc(F)c3)c(C#N)c2)n1
< 70% | < 70% | > 70% | – | – | – | – | – | – | 0.813 nM | 0.9 nM | – | Cc1nc(C#Cc2cc(F)cc(C#N)c2)cs1
< 70% | < 70% | > 70% | – | – | – | – | – | – | – | – | 610 nM | Cc1cccc(NC(=O)c2cc(F)cc(-c3ccccc3C)c2)n1
< 70% | < 70% | > 70% | – | – | – | – | – | – | 640 nM | – | 72 nM | Cc1cccc(NC(=O)c2ccc(-c3cccc4ccccc34)c(C#N)c2)n1
< 70% | < 70% | > 70% | – | – | – | – | – | – | – | – | – | Cc1nc(C#Cc2ccc(-c3ccccc3)nc2)cs1
< 70% | < 70% | > 70% | – | – | – | – | – | – | 1870 nM | – | 1730 nM | Cc1cccc(NC(=O)c2cccc(Cl)c2)n1
< 70% | < 70% | > 70% | – | – | – | – | – | – | – | – | – | Cc1nc(C#Cc2cccc(-c3ccccc3)c2)cs1
< 70% | < 70% | > 70% | – | – | – | – | – | – | > 3000 nM | – | 2480 nM | Cc1cccc(NC(=O)c2ccc(-c3cccnc3)nc2)n1
< 70% | < 70% | > 70% | – | – | – | – | – | – | 7.19 nM | – | 3 nM | Cc1cccc(C#Cc2ccc(-c3ccc(F)cc3)c(C#N)c2)n1
< 70% | < 70% | ≤ 70% | – | – | – | – | – | – | – | 3330 nM | – | Cc1cccc(NC(=O)c2ccc(-c3cccc(Cl)c3)cc2)n1
< 70% | < 70% | > 70% | – | – | – | – | – | – | – | – | 7300 nM | Cc1cccc(NC(=O)c2cccc(-c3ccccc3)c2)n1
< 70% | < 70% | > 70% | – | – | – | – | – | – | – | > 10000 nM | – | Cc1cccc(NC(=O)c2ccc(F)c(F)c2)n1
< 70% | < 70% | > 70% | – | – | – | – | – | – | – | – | > 10000 nM | Cc1cccc(NC(=O)c2cncc(-c3cccnc3)c2)n1
< 70% | < 70% | > 70% | – | – | – | – | – | – | – | – | 4920 nM | COc1ccccc1-c1cncc(C(=O)Nc2cccc(C)n2)c1
< 70% | < 70% | < 70% | – | – | – | – | – | – | – | – | – | Cc1nc(C#Cc2cccnc2)cs1
< 70% | < 70% | > 70% | > 6000 nM | > 6000 nM | > 6000 nM | > 6000 nM | > 6000 nM | > 6000 nM | – | – | – | Cc1nc(C#Cc2ccc(-c3cccnc3)c(F)c2)cs1
< 70% | < 70% | > 70% | – | – | – | – | – | – | 4.57 nM | – | 134 nM | Cc1cccc(NC(=O)c2ccc(-c3ccc(F)cc3)c(C#N)c2)n1

inhibition [1] | inhibition [2] | inhibition [3] | Ki [4] | Ki [5] | Ki [6] | Ki [7] | Ki [8] | Ki [9] | IC50 [10] | Ki [11] | Ki [12] | SMILES
< 70% | < 70% | ≤ 70% | – | – | – | – | – | – | – | > 10000 nM | – | Cc1cccc(NC(=O)c2ccc(-c3cccc(C#N)c3)cc2)n1
< 70% | < 70% | ≤ 70% | – | – | – | – | – | – | – | 7000 nM | – | Cc1cccc(NC(=O)c2ccc(-c3ccccc3)cc2)n1
< 70% | < 70% | > 70% | – | – | – | – | – | – | – | – | > 10000 nM | COc1ccccc1-c1cc(F)cc(C(=O)Nc2cccc(C)n2)c1
< 70% | < 70% | > 70% | – | – | – | – | – | – | – | > 10000 nM | – | Cc1cccc(NC(=O)c2ccc(C#N)cc2)n1
< 70% | < 70% | > 70% | – | – | – | – | – | – | – | > 10000 nM | – | Cc1cccc(NC(=O)c2ccc(Br)cc2)n1
< 70% | < 70% | > 70% | – | – | – | – | – | – | > 3000 nM | – | 356 nM | Cc1cccc(NC(=O)c2ccc(-c3ccccc3)nc2)n1
< 70% | < 70% | > 70% | – | – | – | – | – | – | 0.415 nM | – | 1.3 nM | Cc1cccc(C#Cc2cccc(C#N)c2)n1
< 70% | < 70% | > 70% | – | – | – | – | – | – | – | – | 702 nM | Cc1cccc(NC(=O)c2cc(F)cc(-c3cccnc3)c2)n1
< 70% | < 70% | > 70% | – | – | – | – | – | – | – | – | – | Cc1nc(C#Cc2ccc(-c3cccnc3)nc2)cs1
< 70% | < 70% | > 70% | – | – | – | – | – | – | > 1000 nM | – | 2780 nM | Cc1cccc(NC(=O)c2ccc(-c3cccnc3)c(Cl)c2)n1
< 70% | < 70% | > 70% | – | – | – | – | – | – | 490 nM | – | 330 nM | Cc1cccc(NC(=O)c2cccc(C#N)c2)n1
< 70% | < 70% | ≤ 70% | – | – | – | – | – | – | – | 7580 nM | – | Cc1cccc(NC(=O)c2cc(F)cc(F)c2)n1
< 70% | < 70% | > 70% | – | – | – | – | – | – | > 1000 nM | – | 2040 nM | Cc1cccc(NC(=O)c2ccc(-c3cccnc3)c(C#N)c2)n1
< 70% | < 70% | > 70% | – | – | – | – | – | – | 98.1 nM | – | – | Cc1cccc(NC(=O)c2cc(-c3cc(F)cc(F)c3)ccn2)n1
< 70% | < 70% | > 70% | > 6000 nM | > 6000 nM | > 6000 nM | > 6000 nM | > 6000 nM | > 6000 nM | 4.83 nM | 2.7 nM | – | Cc1nc(C#Cc2cc(F)cc(-c3cccnc3)c2)cs1
– | – | – | > 6000 nM | > 6000 nM | > 6000 nM | > 6000 nM | > 6000 nM | > 6000 nM | 13.7 nM | 9.8 nM | – | Cc1cccc(NC(=O)c2ccc(-c3ccccc3)c(C#N)c2)n1
< 70% | < 70% | > 70% | – | – | – | – | – | – | – | 7290 nM | – | Cc1cccc(NC(=O)c2ccc(Oc3ccccc3)cc2)n1

SMILES | inhibition [1] | inhibition [2] | inhibition [3] | Ki [4] | Ki [5] | Ki [6] | Ki [7] | Ki [8] | Ki [9] | IC50 [10] | Ki [11] | Ki [12]
Cc1cccc(NC(=O)c2ccc(-c3cccnc3)c(F)c2)n1 | < 70% | < 70% | > 70% | – | – | – | – | – | – | > 3000 nM | – | 7720 nM
Cc1cccc(NC(=O)c2cc(F)cc(C#N)c2)n1 | < 70% | < 70% | > 70% | – | – | – | – | – | – | 21.7 nM | – | 65.5 nM
